{"source": "patent US20190175671A1", "about": "“MICRORNA 22 REGULATORS COMPOSITIONS AND METHODS AND USES THEREOF” (priority 2017, published 2019)", "key": {"microRNA 22": {"tested_on": "microRNA 22", "conditions": "pancreatic cancer cells; cited from earlier work"}, "[1]": {"tested_on": "Interferon Regulatory Factor 9", "conditions": "cited from earlier work"}, "MIR22HG": {"tested_on": "MIR22HG", "assay": "Expression of long non-coding RNA MIR22HG"}}, "data": [{"smiles": "COc1cc(/C=C/C(=O)CC(=O)/C=C/c2ccc(O)c(OC)c2)ccc1O", "note": "[curcumin, diferuloylmethane]", "values": [{"measurement": "expression of microRNA 22", "setting": "microRNA 22", "value": "upregulation"}]}, {"smiles": "CC(=O)Nc1ccc(O)cc1", "note": "[Acetaminophen]", "values": [{"measurement": "effect on IRF9", "setting": "[1]", "value": "inhibitor"}]}, {"smiles": "CC(NCCC(c1ccccc1)c1ccccc1)c1ccccc1", "note": "(stereo not drawn) [Fendiline]", "values": [{"measurement": "expression of lncRNA MIR22HG", "setting": "MIR22HG", "value": "upregulates"}]}]}
